# Laboratory results published in patent US11702401B2, “Compounds and methods of use” (Medivation Technologies LLC, priority 2014, dated 2023).
# Legend:
# [1] = Pharmacokinetics and bioavailability in male mice, oral single dose; format: in vivo; conditions: oral 10 mg/kg
# [2] = Plasma and brain concentrations in male mice at 0.5 and 1 h; format: in vivo
smiles,measurement,setting,value
"C[C@H](O)CNC(=O)c1cnccc1Nc1cc(-c2cc(Cl)ccc2F)ncc1N(C)C (single isomer, unassigned) [16a]",AUClast,[1],7.50 µM·h
same,Tmax,[1],30 min
same,Brain Concentration,"[2]; IV, 0.5 h",48 nM
same,Plasma Concentration,"[2]; IV, 0.5 h",3040 nM
same,Brain Concentration,"[2]; IV, 1 h",19 nM
same,Plasma Concentration,"[2]; IV, 1 h",1230 nM
same,Brain Concentration,"[2]; PO, 0.5 h",48 nM
same,Plasma Concentration,"[2]; PO, 0.5 h",3420 nM
same,Brain Concentration,"[2]; PO, 1 h",25 nM
same,Plasma Concentration,"[2]; PO, 1 h",1690 nM
"CC(C)c1cnc(-c2cc(Cl)ccc2F)cc1Nc1ccncc1C(=O)NC(CO)CO [compound 22, 4-[[2-(5-chloro-2-fluoro-phenyl)-5-isopropyl-4-pyridyl]amino]-N-[2-hydroxy-1-(hydroxymethyl)ethyl]pyridine-3-carboxamide]",Brain Concentration,"[2]; IV, 0.5 h",7 nM
same,Plasma Concentration,"[2]; IV, 0.5 h",1690 nM
same,Brain Concentration,"[2]; IV, 1 h",5 nM
same,Plasma Concentration,"[2]; IV, 1 h",967 nM
same,Brain Concentration,"[2]; PO, 0.5 h",20 nM
same,Plasma Concentration,"[2]; PO, 0.5 h",7070 nM
same,Brain Concentration,"[2]; PO, 1 h",15 nM
same,Plasma Concentration,"[2]; PO, 1 h",3530 nM
